Counter-ions that a name gives are not always drawn.
Assays:
phenylquinone [1] = assay: Writhing test, acute (phenylquinone writhing, analgesic activity); format: in vivo; details: mice; for ED50, writhing test, acute p.o., 10 min. p.i. / ED50, writhing test, acute p.o., 30 min. p.i. / ED50, writhing test, acute s.c., 30 min. p.i. / ED50, writhing test, acute s.c., 10 min. p.i.: phenylquinone 2 mg/kg i.p., hydrochloride; for ED50, writhing test, acute p.o., 10 min. p.i. / ED50, writhing test, acute p.o., 30 min. p.i. / ED50, writhing test, acute s.c., 10 min. p.i.: ED50 rounded; for ED50, writhing test, acute s.c., 30 min. p.i.: * = significant difference between acute and subchronic ED50 (p < 0.001); for potency in writhing test compared with cyclazocine: vs. cyclazocine; for potency in writhing test compared with morphine: vs. morphine; for potency in writhing test compared with pentazocine: vs. pentazocine
Protocol: (§1) The pharmacological investigations were conducted on mice weighing 20-22 g. or on rats weighing 80-110 g. Unless indicated otherwise, the test substances were administered in the form of the hydrochloride acid addition salt thereof in an isotonic NaCl solution, and the animals were examined 30 minutes after subcutaneous (sc) application. The injection volume was respectively 5 ml./kg. of body weight. 10-40 controls animals were used in each experiment. The test and control solutions were administered in accordance with a randomized injection schedule. Seven logarithmically spaced dosages were employed of each test substance. The effective dose (ED) was calculated by probit analysis (Finney, D. J., "Probit Analysis," Cambridge University Press, 2nd Edition, Cambridge 1957). ED50 figures were rounded.
(§2) In the acute test, the test compounds were administered perorally (p.o.) or subcutaneously (s.c.) to mice. Eight mice were used per dose. Seven minutes prior to the testing, the animals received 2 mg./kg. of phenylquinone intraperitoneally. […] The criterion for protective effect was absence of writhes during the eighth minute after phenylquinone administration.

electroshock = assay: Maximal electroshock test; format: in vivo; details: mice; for ED50, Maximal Electroshock Test: s.c.
Protocol: 10-40 controls animals were used in each experiment. […] ED50 figures were rounded.
In the maximum electroshock test, the test substances were administered to dose groups of 6 mice. Sinusoidal pulses of 16 milliamperes/50 c.p.s. [Hertz] and 0.2 second duration were delivered transcorneally via silver electrodes. The shock intensity used elicits nonlethal tonic-clonic convulsions in control animals (p <0.01, N = 192). The criterion for protective effect was the absence of the tonic extensor cramp of the hind limbs after shock application (modified test according to Swinyard et al., J. Pharmacol. Exp. Ther. 106, 319, 1952).

apomorphine = assay: Apomorphine antagonism test; format: in vivo, mice; details: for apomorphine-antagonistic activity compared with cyclazocine and pentazocine: vs. cyclazocine and pentazocine; for apomorphine-antagonistic activity compared with haloperidol: vs. haloperidol; for ED50, Apomorphine Antagonism: mouse, in vivo, 1.56 mg/kg
Protocol: as §1
The criterion for antagonistic effect was the absence of stereotyped movements within an observation period of one minute.

phenylquinone [2] = details: mice; s.c.; 30 min p.i.; 25 hours after last injection of 64-hour pretreatment, total 550 mg/kg
Protocol: as §1, §2
In the subchronic test, the same test was performed 25 hours after the last injection of a 64-hour pretreatment period, with the test compound being administered subcutaneously. During the pretreatment period, the subjects received a total of 550 mg/kg. of the test compound, with the test compound being injected over a period of 22 hours in 4 increasing dosages in salt form, and over an additional 42 hours in 2 identical dosages in free base form in sesame oil.

morphine [3] = system: morphine; set-up: species or system mice; details: mouse, in vivo; for ED50, Morphine Antagonism-Tail-Flick Test, Mice: 12.5 mg/kg
morphine [4] = assay: animal or person; format: in vivo, rats; details: rat, in vivo; for ED50, Morphine Antagonism-Tail-Flick Test, Rats: sc, 6.25 mg/kg
morphine [5] = assay: Precipitated Withdrawal Jumping Test (morphine antagonism in morphine-dependent mice); format: in vivo
Protocol: as §1
The test compound was given to dose groups of 8 animals. The antagonist-precipitated withdrawal jumping frequencies were recorded during three 5-minute observation intervals uniformly distributed over 30 minutes after administration of the test compound. […] The criterion for a precipitating effect is a mean jumping frequency of >1/minute.

[6] = 16 mA/50 c.p.s., 0.2 second, transcorneal, absence of tonic extensor cramp of hind limbs, 30 min
[7] = morphine-dependent mice, criterion mean jumping frequency >1/minute

## CCC12CCN(CC(C)(C)O)C(Cc3ccc(O)cc31)C2C (single isomer, unassigned; (-)) [Compound A, (-)-5-ethyl-2'-hydroxy-2-(2-hydroxy-2-methylpropyl)-9-methyl-6,7-benzomorphan]
Phenylquinone [1]
  ED50, writhing test, acute p.o., 10 min. p.i.: 3 mg/kg
  ED50, writhing test, acute p.o., 30 min. p.i.: 7 mg/kg
  ED50, writhing test, acute s.c., 30 min. p.i.: 0.2 mg/kg
  potency in writhing test compared with cyclazocine: at least equipotent with cyclazocine
  potency in writhing test compared with morphine: more potent than morphine
  potency in writhing test compared with pentazocine: appreciably more potent than pentazocine
electroshock
  muscle-relaxant and anti-convulsant effect in maximum electroshock test (in words): strong muscle-relaxant and anti-convulsant effect
electroshock; [6]
  ED50, Maximal Electroshock Test: 8 mg/kg
apomorphine; mice
  apomorphine-antagonistic activity compared with cyclazocine and pentazocine: markedly stronger activity than cyclazocine and pentazocine
  apomorphine-antagonistic activity compared with haloperidol: only slightly weaker effectiveness than haloperidol
apomorphine; sc
  ED50, Apomorphine Antagonism: 0.3 mg/kg

## CC1C2Cc3ccc(O)cc3C1(C)CCN2CC(C)(C)O (single isomer, unassigned; (-)) [Compound B, (-)-2'-hydroxy-2-(2-hydroxy-2-methylpropyl)-5,9-dimethyl-6,7-benzomorphan]
Phenylquinone [1]
  ED50, writhing test, acute p.o., 10 min. p.i.: 5 mg/kg
  ED50, writhing test, acute p.o., 30 min. p.i.: 10 mg/kg
  ED50, writhing test, acute s.c., 10 min. p.i.: 0.05 mg/kg
  ED50, writhing test, acute s.c., 30 min. p.i.: 0.4 mg/kg
  potency in writhing test compared with cyclazocine: at least equipotent with cyclazocine
  potency in writhing test compared with morphine: more potent than morphine
  potency in writhing test compared with pentazocine: appreciably more potent than pentazocine
Phenylquinone [2]
  ED50, writhing test, subchronic s.c., 30 min. p.i.: 0.4 mg/kg
Morphine [3]
  morphine-antagonistic activity, tail-flick test (in words), mice: marked activity
Morphine [3]; sc
  ED50, Morphine Antagonism-Tail-Flick Test, Mice: 5 mg/kg
Morphine [4]
  morphine-antagonistic activity, tail-flick test (in words), rats: marked activity
  ED50, Morphine Antagonism-Tail-Flick Test, Rats: 3 mg/kg
Morphine [5]; morphine-dependent mice
  precipitated withdrawal effect (in words): inactivity
  sedative and muscle-relaxant effect (explaining inactivity in jumping test): simultaneous sedative and muscle-relaxant effect
Morphine [5]; morphine-dependent mice, tested at 0.1 - 3.13 mg/kg
  ED50, Precipitated Withdrawal Jumping Test (inactive, footnote 1): Inactive
electroshock
  muscle-relaxant and anti-convulsant effect in maximum electroshock test (in words): strong muscle-relaxant and anti-convulsant effect
electroshock; [6]
  ED50, Maximal Electroshock Test: 4 mg/kg
apomorphine; mice
  apomorphine-antagonistic activity compared with cyclazocine and pentazocine: markedly stronger activity than cyclazocine and pentazocine
  apomorphine-antagonistic activity compared with haloperidol: only slightly weaker effectiveness than haloperidol
apomorphine; sc
  ED50, Apomorphine Antagonism: 0.3 mg/kg

## CCC12CCN(CC(C)O)C(Cc3ccc(O)cc31)C2C (single isomer, unassigned; (-)) [Compound C, (-)-5-ethyl-2'-hydroxy-2-(2-hydroxypropyl)-9-methyl-6,7-benzomorphan]
Morphine [3]
  morphine-antagonistic activity, tail-flick test (in words), mice: marked activity
Morphine [3]; sc
  ED50, Morphine Antagonism-Tail-Flick Test, Mice: 1 mg/kg
Morphine [4]
  morphine-antagonistic activity, tail-flick test (in words), rats: marked activity
  ED50, Morphine Antagonism-Tail-Flick Test, Rats: 2 mg/kg
Morphine [5]; morphine-dependent mice
  precipitated withdrawal effect (in words): considerable activity
Morphine [5]; [7]
  ED50, Precipitated Withdrawal Jumping Test: 7 mg/kg

## CC(O)CN1CCC2(C)c3cc(O)ccc3CC1C2C (single isomer, unassigned; (-)) [Compound D, (-)-2'-hydroxy-2-(2-hydroxypropyl)-5,9-dimethyl-6,7-benzomorphan]
Morphine [3]
  morphine-antagonistic activity, tail-flick test (in words), mice: marked activity
Morphine [3]; sc
  ED50, Morphine Antagonism-Tail-Flick Test, Mice: 1 mg/kg
Morphine [4]
  morphine-antagonistic activity, tail-flick test (in words), rats: marked activity
  ED50, Morphine Antagonism-Tail-Flick Test, Rats: 2 mg/kg
Morphine [5]; morphine-dependent mice
  precipitated withdrawal effect (in words): considerable activity
Morphine [5]; [7]
  ED50, Precipitated Withdrawal Jumping Test: 9 mg/kg

## CNC1=Nc2ccc(Cl)cc2C(c2ccccc2)=[N+]([O-])C1 [Chlordiazepoxide, reference compound]
electroshock; Mus musculus, sc, 0.5 h, 16 mA/50 c.p.s., 0.2 second, transcorneal, absence of tonic extensor cramp of hind limbs, 30 min
  ED50: 12 mg/kg

## O=C(CCCN1CCC(O)(c2ccc(Cl)cc2)CC1)c1ccc(F)cc1 [Haloperidol, reference compound]
apomorphine; Mus musculus, sc, read-out: ED50, Apomorphine Antagonism
  ED50: 0.1 mg/kg

## CN1CC[C@]23c4c5ccc(O)c4O[C@H]2[C@@H](O)C=C[C@H]3[C@H]1C5 [Morphine, reference compound]
Phenylquinone [1]
  ED50, writhing test, acute p.o., 10 min. p.i.: 7 mg/kg
  ED50, writhing test, acute p.o., 30 min. p.i.: 3 mg/kg
  ED50, writhing test, acute s.c., 10 min. p.i.: 0.3 mg/kg
  ED50, writhing test, acute s.c., 30 min. p.i.: 0.5 mg/kg
Phenylquinone [2]
  ED50, writhing test, subchronic s.c., 30 min. p.i.: 3 mg/kg

## C=CCN1CC[C@]23c4c5ccc(O)c4O[C@H]2C(=O)CC[C@@]3(O)[C@H]1C5 [Naloxone, reference compound]
Morphine [5]; Mus musculus, sc, morphine-dependent mice, criterion mean jumping frequency >1/minute
  ED50: 0.2 mg/kg
Morphine [5]; mice, solvent controls, naloxone 0.39 mg/kg, N = 80
  jumping frequency, solvent controls challenged with naloxone: 0.13 ± 0.06 min⁻¹

## CN1CCc2cccc3c2[C@H]1Cc1ccc(O)c(O)c1-3 [apomorphine hydrochloride, reference compound]
apomorphine; Mus musculus, sc, mice, ED95, s.c., read-out: apomorphine dose corresponding to an ED95 for the production of stereotyped behavior in the head region
  ED95: 1.56 mg/kg

## CN1CC[C@]23c4c5ccc(O)c4O[C@H]2[C@@H](O)C=C[C@H]3[C@H]1C5.O=S(=O)(O)O [morphine sulfate, reference compound]
Morphine [3]; sc
  morphine dose corresponding to the ED80, reaction times exceeding 95% value of controls: 12.5 mg/kg
Morphine [4]
  morphine dose corresponding to the ED99, reaction times exceeding 95% value of controls: 6.25 mg/kg

## O=C1C=CC(=O)C(c2ccccc2)=C1 [phenylquinone, reference compound]
Phenylquinone [1]; Mus musculus, ip, 10 min, ED95, intraperitoneal, maximum action within 10 minutes p.i., read-out: phenylquinone dosage corresponding to the ED95 for the evocation of writhing
  ED95: 2 mg/kg

Source: patent US4020164A, “Benzomorphan derivatives” (priority 1972, dated 1977)
